In patent US7569578B2, “Heterocyclic anti-migraine agents” (Bristol-Meyers Squibb Company, priority 2003, dated 2009):

Target: T1, Human CGRP1 Receptor (Homo sapiens, UniProt O60894+Q16602)
T1 construct: endogenous in cells; host or cells: SK-N-MC cells (membrane homogenate)
Assay: CGRP Binding Assay ([125I]-CGRP radioligand displacement, SK-N-MC membrane homogenate)
Settings: [125I]-CGRP displacement, SK-N-MC homogenate, room temperature 2 h; read-out: Human CGRP1 Receptor IC50

T1 sequence (Q16602 23-461): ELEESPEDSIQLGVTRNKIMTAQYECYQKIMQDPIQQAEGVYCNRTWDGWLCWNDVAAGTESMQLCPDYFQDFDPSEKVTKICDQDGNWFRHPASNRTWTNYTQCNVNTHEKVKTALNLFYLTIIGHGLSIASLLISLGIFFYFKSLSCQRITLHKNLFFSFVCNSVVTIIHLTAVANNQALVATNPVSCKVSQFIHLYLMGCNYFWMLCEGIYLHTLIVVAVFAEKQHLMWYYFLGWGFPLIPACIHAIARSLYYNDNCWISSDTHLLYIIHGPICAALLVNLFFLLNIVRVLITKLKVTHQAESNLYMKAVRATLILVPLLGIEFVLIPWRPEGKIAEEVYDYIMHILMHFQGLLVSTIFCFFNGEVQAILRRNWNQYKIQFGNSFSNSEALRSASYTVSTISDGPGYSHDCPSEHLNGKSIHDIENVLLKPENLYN
T1 sequence (O60894 27-148): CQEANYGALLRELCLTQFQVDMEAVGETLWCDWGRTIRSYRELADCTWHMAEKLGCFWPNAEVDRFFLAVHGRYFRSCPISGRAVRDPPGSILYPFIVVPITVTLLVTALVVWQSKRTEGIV

`CC1=CC(CC(CC(=O)N2CCC(N3Cc4cccc(F)c4NC3=O)CC2)c2nccn2Cc2ccc(C(C)(C)C)cc2)=CC2C=NNC12` (stereo not drawn) [Example 96, 3-(1-(3-(1-(4-tert-Butylbenzyl)-1H-imidazol-2-yl)-4-(7-methyl-3a,7a-dihydro-1H-indazol-5-yl)butanoyl)piperidin-4-yl)-8-fluoro-3,4-dihydroquinazolin-2(1H)-one] and `CC1=CC(CC(CC(=O)N2CCC(N3Cc4ccccc4NC3=O)CC2)c2nccn2Cc2ccncc2)=CC2C=NNC12` (stereo not drawn) [Example 97, 3-(1-(4-(7-Methyl-3a,7a-dihydro-1H-indazol-5-yl)-3-(1-(pyridin-4-ylmethyl)-1H-imidazol-2-yl)butanoyl)piperidin-4-yl)-3,4-dihydroquinazolin-2(1H)-one] cannot be ordered by IC50: < 10 nM for the first, < 10 nM for the second.

`CC1=CC(CC(CC(=O)N2CCC(N3Cc4ccccc4NC3=O)CC2)c2nc3ccccc3[nH]2)=CC2C=NNC12` (stereo not drawn) [Example 98, 3-(1-(3-(1H-Benzo[d]imidazol-2-yl)-4-(7-methyl-3a,7a-dihydro-1H-indazol-5-yl)butanoyl)piperidin-4-yl)-3,4-dihydroquinazolin-2(1H)-one] and `CCn1c(C(CC(=O)N2CCC(N3Cc4ccccc4NC3=O)CC2)CC2=CC3C=NNC3C(C)=C2)nc2ccccc21` (stereo not drawn) [Example 99, 3-(1-(3-(1-Ethyl-1H-benzo [d]imidazol-2-yl)-4-(7-methyl-3a,7a-dihydro-1H-indazol-5-yl)butanoyl)piperidin-4-yl)-3,4-dihydroquinazolin-2(1H)-one] cannot be ordered by IC50: < 10 nM for the first, < 10 nM for the second.

First: Cc1cc(C[C@@H](OC(=O)N2CCC(c3cc4ccccc4[nH]c3=O)CC2)c2nc(-c3ccc(F)cc3)no2)cc2cn[nH]c12 [Example 100, (R)-1-(3-(4-Fluorophenyl)-1,2,4-oxadiazol-5-yl)-2-(7-methyl-1H-indazol-5-yl)ethyl 4-(2-oxo-1,2-dihydroquinolin-3-yl)piperidine-1-carboxylate]
Second: Cc1cc(C[C@@H](OC(=O)N2CCC(N3Cc4ccccc4NC3=O)CC2)c2nc(-c3ccncc3)no2)cc2cn[nH]c12 [Example 101, (R)-2-(7-Methyl-1H-indazol-5-yl)-1-(3-(pyridin-4-yl)-1,2,4-oxadiazol-5-yl)ethyl 4-(2-oxo-1,2-dihydroquinazolin-3(4H)-yl)piperidine-1-carboxylate]
The IC50 of the first is higher: 100 to 1000 nM for the first, 10 to 100 nM for the second.

`Cc1cc(C[C@@H](OC(=O)N2CCC(c3cc4ccccc4[nH]c3=O)CC2)c2nc(-c3cccnc3)no2)cc2cn[nH]c12` [Example 102, (R)-2-(7-Methyl-1H-indazol-5-yl)-1-(3-(pyridin-3-yl)-1,2,4-oxadiazol-5-yl)ethyl 4-(2-oxo-1,2-dihydroquinolin-3-yl)piperidine-1-carboxylate] and `CCOC(=O)c1noc([C@@H](Cc2cc(C)c3[nH]ncc3c2)OC(=O)N2CCC(c3cc4ccccc4[nH]c3=O)CC2)n1` [Example 103, (R)-1-(3-(Ethoxycarbonyl)-1,2,4-oxadiazol-5-yl)-2-(7-methyl-1H-indazol-5-yl)ethyl 4-(2-oxo-1,2-dihydroquinolin-3-yl)piperidine-1-carboxylate] fall in the same range of IC50: 10 to 100 nM for the first, 10 to 100 nM for the second.

In the case of “(±)-4-(2-Oxo-1,4-dihydro-2H-quinazolin-3-yl)-piperidine-1-carboxylic acid [2-(7-ethyl-3-methyl-1H-indazol-5-yl)-1-pyridin-4-yl methyl-1H-tetrazol-5-yl)-ethyl]-amide [Example 19]”, the IC50 is reported as < 10 nM.
